One test concerns Staphylococcus aureus. Put plainly: MIC vs. aerobic bacteria, microplate broth-dilution (BHI). The test is classed as cell-based. To be noted: Staphylococcus aureus.
The test system of another test is Diplococcus pneumoniae. Described as above. The test is classed as cell-based. The note with it: Streptococcus pneumoniae. How it is done:
(§1) The Minimal Inhibitory Concentration (MIC's) of both compounds Vs. aerobic bacteria is determined using a standard microplate broth-dilution method. Brain Heart Infusion (BHI-Difco) broth medium is used, and the plates are incubated at 37° C. for 20 hrs.

The next test relates to Escherichia coli. The test is described as above. In kind it is cell-based. How it is done:
as §1

The test system of a further test is Klebsiella pneumoniae. The description is as above. The note with it: Klebsiella pneumoniae. The test is classed as cell-based. How it is done:
as §1

For the next test, the system named is Proteus vulgaris. The test is described as above. In kind it is cell-based. The note with it: Proteus vulgaris, UC93, 20 h, P. vulgaris UC 93; read-out: MIC. On the procedure: as §1
The subject of a further test is Pseudomonas aeruginosa. The description is as above. In kind it is cell-based. On the procedure:
as §1

The test system of test [1] is Salmonella schottmuelleri. The test is described as above. To be noted: Salmonella. In kind it is cell-based. How it is done: as §1
The test system of a further test is Streptococcus faecalis. Described as above. To be noted: Enterococcus faecalis. The test is classed as cell-based. On the procedure:
as §1

For test [2], the system named is S. hemolyticus. Kind of test: MIC, test procedure as given supra. In kind it is cell-based. The note with it: UC152, 20 h, S. hemolyticus UC 152; read-out: MIC. On the procedure:
as §1
(§2) The Minimal Inhibitory Concentration (MIC's) of a representative number of the compounds prepared in Examples 2-8 follows. The test procedure is as given supra.

Test [3] relates to S. lutea. Kind of test: MIC, test procedure as given supra. The test is classed as cell-based. To be noted: Micrococcus luteus, UC130, 20 h; S. lutea UC 130. How it is done:
as §1, §2

Test [4] relates to S. lutea. Put plainly: Qual. Assay vs. S. lutea. To be noted: qualitative. In kind it is cell-based.
A further test deals with Streptococcus pyogenes. Put plainly: MIC vs. aerobic bacteria, microplate broth-dilution (BHI). In kind it is cell-based. The note with it: UC152, UC 152, read-out: Minimal Inhibitory Concentration (MIC). How it is done:
as §1

The test system of another test is S. aureus. Kind of test: Mouse Protection Test. The test is classed as in vivo. The note with it: for ED50: Staphylococcus aureus, read-out: Median Protective Dose (CD50). From the text:
(§3) Immediately before use, the suspensions were thawed quickly and properly diluted. Infection was via the intrapertioneal route.
(§4) Treatment of the infected groups was begun immediately and continued once per day for 4 days (first 24 hr period=1). Groups of untreated mice served as virulence controls for the culture.
(§5) Seven days after the treatment regimen was begun the surviving animals were sacrificed and the median protective dose of the antibiotic calculated on the basis of mortality rates in the treatment groups. The median protective dose and its 95% confidence interval were calculated according to the method of Spearmen & Karber as programmed on a 360 digital computer.

Test [5] has as its system S. hemolyticus. Put plainly: Mouse Protection Test. In kind it is in vivo. To be noted: for ED50: 168 h, read-out: Median Protective Dose (CD50).
Source text: as §3, §4, §5

In another test the test system is D. pneumoniae III. Kind of test: Mouse Protection Test. The note with it: for ED50: Streptococcus pneumoniae, 168 h, read-out: Median Protective Dose (CD50); for ED50 / Median Protective Dose (CD50): strain MPI III, two experiments listed; for Median Protective Dose (CD50): 10080 min, listed as U-60970E . Hcl. In kind it is in vivo.
Source text: as §3, §4, §5
(§6) U-60,970E was also tested in vivo in standard laboratory mice which were experimentally infected with bacteria. The test was conducted in comparison with U-57,930E.

Another test has as its system D. pneumoniae I. Put plainly: Mouse Protection Test. The note with it: for ED50: Streptococcus pneumoniae, 168 h, strain Felton I, read-out: Median Protective Dose (CD50). The test is classed as in vivo.
Source text: as §3, §4, §5, §6

In the next test the test system is bacteria. Put plainly: antibacterial activity (general statement).
The mark [6] stands for this setting: UC76, S. aureus UC 76, read-out: Minimal Inhibitory Concentration (MIC).
The mark [7] stands for this setting: UC570, S. aureus UC 570, read-out: Minimal Inhibitory Concentration (MIC).
Where [8] appears, read: UC746, S. aureus UC 746, read-out: Minimal Inhibitory Concentration (MIC).
Where [9] appears, read: UC41, Diplococcus pneumoniae I, UC 41, read-out: Minimal Inhibitory Concentration (MIC).
The mark [10] stands for this setting: UC45, UC 45, read-out: Minimal Inhibitory Concentration (MIC).
[11] abbreviates: UC58, UC 58, read-out: Minimal Inhibitory Concentration (MIC).
Setting [12] is: UC95, UC 95, read-out: Minimal Inhibitory Concentration (MIC).
[13] abbreviates: UC126, UC 126, read-out: Minimal Inhibitory Concentration (MIC).
Setting [14] is: UC694, UC 694, read-out: Minimal Inhibitory Concentration (MIC).

Values after ≈ are worked out from the molar mass of the structure shown. Where two headings read alike, the source gives them in different places.

On to `CCc1ccnc(C(=O)N[C@@H]([C@H]2O[C@H](SC)[C@H](O)[C@@H](O)[C@H]2O)[C@H](C)O)c1` [U-45,659], for which the MIC with Staphylococcus aureus (UC76, 20 h, S. aureus UC 76, read-out: MIC) is over 1000 µg/mL; in the test on Staphylococcus aureus (UC570, 20 h, S. aureus UC 570, read-out: MIC), over 1000 µg/mL; with Staphylococcus aureus (UC746, 20 h, S. aureus UC 746, read-out: MIC), 1000 µg/mL (≈ 2590 µM); in the test with Diplococcus pneumoniae (UC41, 20 h, D. pneumoniae UC 41, read-out: MIC), 500 µg/mL (≈ 1290 µM); in the test with Escherichia coli (UC45, 20 h, E. coli UC 45, read-out: MIC), over 1000 µg/mL; in the test with Klebsiella pneumoniae (UC58, 20 h, K. pneumoniae UC 58, read-out: MIC) it was 1000 µg/mL (≈ 2590 µM). Also, the MIC in the test on Proteus vulgaris is over 1000 µg/mL; in the test on Pseudomonas aeruginosa (UC95, 20 h, Ps. aeruginosa UC 95, read-out: MIC), 1000 µg/mL (≈ 2590 µM); in test [1] (UC126, 20 h, S. schottmuelleri UC 126), over 1000 µg/mL; with Streptococcus faecalis (UC694, 20 h, St. faecalis UC 694, read-out: MIC), over 1000 µg/mL; with S. hemolyticus [2], 500 µg/mL (≈ 1290 µM); against S. lutea [3], 1000 µg/mL (≈ 2590 µM).

Take `CS[C@H]1O[C@H]([C@H](NC(=O)c2cccnc2)[C@H](C)Cl)[C@H](O)[C@H](O)[C@H]1O` [U-46,138]: the “Qual. Assay vs. S. lutea” value in the test with S. lutea [4] is listed as “Inactive”.

Turning to `CCCC[C@@H]1CCN[C@H](C(=O)N[C@@H]([C@H]2O[C@H](SC)[C@H](O)[C@@H](O)[C@H]2O)[C@H](C)Cl)C1` [U-60,970E, 4-Cis-n-Butyl-L-Pipecolic Acid Amide of 7-Cl-MTL], the MIC was 0.125 µg/mL (≈ 0.285 µM) with Staphylococcus aureus (setting [6]); 0.25 µg/mL (≈ 0.569 µM) in the test on Staphylococcus aureus (setting [7]); 0.062 µg/mL (≈ 0.141 µM) in the test with Staphylococcus aureus (setting [8]); 0.016 µg/mL (≈ 0.0364 µM) in the test on Diplococcus pneumoniae (setting [9]); 31.2 µg/mL (≈ 71.1 µM) with Escherichia coli (setting [10]); 7.8 µg/mL (≈ 17.8 µM) with Klebsiella pneumoniae (setting [11]). Moreover, the MIC with Pseudomonas aeruginosa (setting [12]) was over 125 µg/mL; in [1] (setting [13]), 31.2 µg/mL (≈ 71.1 µM); in the test on Streptococcus faecalis (setting [14]), 0.25 µg/mL (≈ 0.569 µM); in the test on Streptococcus pyogenes, 0.008 µg/mL (≈ 0.0182 µM). In addition, the ED50 was 8.12 mg/kg in the test on S. aureus (UC76, 168 h, strain UC 76, oral); 1.32 mg/kg in the test on S. aureus (UC76, sc, 168 h, strain UC 76, subcutaneous); 2.18 mg/kg with S. hemolyticus [5] (strain C203, oral); 0.35 mg/kg with S. hemolyticus [5] (sc, strain C203, subcutaneous); 3.13 mg/kg in the test with D. pneumoniae III (po, oral); 0.44 mg/kg in the test on D. pneumoniae III (sc, subcutaneous). Besides, the ED50 in the test on D. pneumoniae I (oral) came out at 4.42 mg/kg; in the test on D. pneumoniae I (sc, subcutaneous), 0.67 mg/kg. Besides, the “in vivo activity compared with U-57,930E” value in the test on S. aureus (infected mice) was “essentially the same activity”; in the test with S. hemolyticus [5] (infected mice) it was “essentially the same activity”; with D. pneumoniae III (infected mice), “significantly more active”; in the test on D. pneumoniae I (infected mice) it was “significantly more active”. The “Median Protective Dose (CD50)” value in the test on D. pneumoniae III (oral) is 4.12 (2.93-5.81) mg/kg; with D. pneumoniae III (subcutaneous) it was 0.29 (0.21-0.41) mg/kg.

As to `CC[C@H]1CCN[C@@H](C(=O)N[C@@H]([C@H]2O[C@H](SC)[C@H](O)[C@@H](O)[C@H]2O)[C@H](C)Cl)C1` [V A], the MIC with Staphylococcus aureus (setting [6]) is 250 µg/mL (≈ 608 µM); with Staphylococcus aureus (setting [7]), 1000 µg/mL (≈ 2430 µM); with Staphylococcus aureus (setting [8]) it was 125 µg/mL (≈ 304 µM); in the test with Diplococcus pneumoniae (setting [9]) it was 62.5 µg/mL (≈ 152 µM); with Escherichia coli (setting [10]), over 1000 µg/mL; in the test with Klebsiella pneumoniae (setting [11]), over 1000 µg/mL. Further, the MIC was over 1000 µg/mL in the test on Pseudomonas aeruginosa (setting [12]), over 1000 µg/mL in [1] (setting [13]), over 1000 µg/mL in the test with Streptococcus faecalis (setting [14]) and 62.5 µg/mL (≈ 152 µM) in the test on Streptococcus pyogenes. In addition, the “antibacterial potency compared with related form” value with bacteria is recorded as “not as potent an antibacterial agent as the L-cis compound”.

For the origin of these results see patent publication US4310660A, “Lincomycin compounds” (The Upjohn Company, priority 1980, dated 1982).
